In patent US20260062412A1, “NITROGEN-CONTAINING HETEROCYCLIC COMPOUND HAVING MYT1 INHIBITORY ACTIVITY” (CHUGAI SEIYAKU KABUSHIKI KAISHA, priority 2023, published 2026):

molecular target: MYT1 protein (Homo sapiens (Human), UniProt Q99640); test: Test for binding to ATP binding site of MYT1 (Kinase Tracer 178 / Eu-Anti-GST antibody TR-FRET); conditions: ATP binding site of MYT1, 30 minutes at room temperature
Sequence (Q99640 whole entry): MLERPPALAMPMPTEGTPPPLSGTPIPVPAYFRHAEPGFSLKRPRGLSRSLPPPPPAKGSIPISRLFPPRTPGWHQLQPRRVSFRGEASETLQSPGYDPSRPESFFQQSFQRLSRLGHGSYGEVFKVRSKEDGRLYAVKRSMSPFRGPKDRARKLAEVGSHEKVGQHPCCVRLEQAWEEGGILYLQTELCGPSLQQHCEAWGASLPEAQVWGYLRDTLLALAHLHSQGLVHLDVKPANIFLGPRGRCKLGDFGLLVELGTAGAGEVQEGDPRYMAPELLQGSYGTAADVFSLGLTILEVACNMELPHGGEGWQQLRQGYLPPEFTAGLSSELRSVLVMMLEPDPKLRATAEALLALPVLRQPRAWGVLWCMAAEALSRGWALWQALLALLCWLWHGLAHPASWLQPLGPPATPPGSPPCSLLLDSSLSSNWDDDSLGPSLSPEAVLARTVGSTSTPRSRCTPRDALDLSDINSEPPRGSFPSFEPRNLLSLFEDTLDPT

| Structure (SMILES) | IC50 |
| --- | --- |
| Cc1cc2c(-c3nccc4[nH]ncc34)c(N)c(=O)[nH]c2c2cccnc12 [Compound C223, 3-Amino-6-methyl-4-(1H-pyrazolo[4,3-c]pyridin-4-yl)-1H-1,7-phenanthrolin-2-one] | 750 nM |
| Cc1cc2c(-c3cccc4[nH]nnc34)c(N)c(=O)[nH]c2c2cccnc12 [Compound C224, 3-Amino-4-(1H-benzotriazol-4-yl)-6-methyl-1H-1,7-phenanthrolin-2-one] | 3000 nM |
| CC(C)(C)c1cc2c(-c3ccc(F)c4[nH]ncc34)c(N)c(=O)[nH]c2c2cccnc12 [Compound C225, 3-Amino-6-(tert-butyl)-4-(7-fluoro-1H-indazol-4-yl)-1H-1,7-phenanthrolin-2-one] | 1000 nM |
| Cc1cc2c(-c3ccc(F)c4[nH]ncc34)c(N)c(=O)[nH]c2c2ncccc12 [Compound D3, 3-Amino-4-(7-fluoro-1H-indazol-4-yl)-6-methyl-1H-1,10-phenanthrolin-2-one] | 4.6 nM |
| Nc1c(-c2ccc(F)c3[nH]ncc23)c2ccc3cccnc3c2[nH]c1=O [Compound D4, 3-Amino-4-(7-fluoro-1H-indazol-4-yl)-1H-1,10-phenanthrolin-2-one] | 15 nM |
| CCc1cc2c(-c3ccc(F)c4[nH]ncc34)c(N)c(=O)[nH]c2c2ncccc12 [Compound D5, 3-Amino-6-ethyl-4-(7-fluoro-1H-indazol-4-yl)-1H-1,10-phenanthrolin-2-one] | 6.4 nM |
| CN1CCN(c2cc3c(-c4ccc(F)c5[nH]ncc45)c(N)c(=O)[nH]c3c3ncccc23)CC1 [Compound D6, 3-Amino-4-(7-fluoro-1H-indazol-4-yl)-6-(4-methylpiperazin-1-yl)-1H-1,10-phenanthrolin-2-one] | 2.1 nM |
| Nc1c(-c2ccc(F)c3[nH]ncc23)c2cc(N3CCC(N4CCOCC4)CC3)c3cccnc3c2[nH]c1=O [Compound D7, 3-Amino-4-(7-fluoro-1H-indazol-4-yl)-6-(4-morpholin-4-ylpiperidin-1-yl)-1H-1,10-phenanthrolin-2-one] | 15 nM |
| Nc1c(-c2ccc(F)c3[nH]ncc23)c2cc(N3CCC(F)(F)C3)c3cccnc3c2[nH]c1=O [Compound D8, 3-Amino-6-(3,3-difluoropyrrolidin-1-yl)-4-(7-fluoro-1H-indazol-4-yl)-1H-1,10-phenanthrolin-2-one] | 10 nM |
| Nc1c(-c2ccc(F)c3[nH]ncc23)c2cc(N3CCOCC3)c3cccnc3c2[nH]c1=O [Compound D9, 3-Amino-4-(7-fluoro-1H-indazol-4-yl)-6-morpholin-4-yl-1H-1,10-phenanthrolin-2-one] | 22 nM |
| Nc1c(-c2ccc(F)c3[nH]ncc23)c2cc(N3CC4(COC4)C3)c3cccnc3c2[nH]c1=O [Compound D10, 3-Amino-4-(7-fluoro-1H-indazol-4-yl)-6-(2-oxa-6-azaspiro[3,3]heptan-6-yl)-1H-1,10-one] | 3.9 nM |
| Nc1c(-c2ccc(F)c3[nH]ncc23)c2cc(N3CC(N4CC(F)(F)C4)C3)c3cccnc3c2[nH]c1=O [Compound D11, 3-Amino-6-[3-(3,3-difluoroazetidin-1-yl)azetidin-1-yl]-4-(7-fluoro-1H-indazol-4-yl)-1H-1,10-phenanthrolin-2-one] | 20 nM |
| Nc1c(-c2ccc(F)c3[nH]ncc23)c2cc(N3CCN4CCOC[C@H]4C3)c3cccnc3c2[nH]c1=O [Compound D12, 6-[(9aR)-3,4,6,7,9,9a-hexahydro-1H-pyrazino[2,1-c][1,4]oxazin-8-yl]-3-amino-4-(7-fluoro-1H-indazol-4-yl)-1H-1,10-phenanthrolin-2-one] | 49 nM |
| Nc1c(-c2ccc(F)c3[nH]ncc23)c2cc(N3CCN4CCOC[C@@H]4C3)c3cccnc3c2[nH]c1=O [Compound D13, 6-[(9aS)-3,4,6,7,9,9a-hexahydro-1H-pyrazino[2,1-c][1,4]oxazin-8-yl]-3-amino-4-(7-fluoro-1H-indazol-4-yl)-1H-1,10-phenanthrolin-2-one] | 25 nM |
| Nc1c(-c2ccc(F)c3[nH]ncc23)c2cc(N3CCN(CC(F)F)CC3)c3cccnc3c2[nH]c1=O [Compound D14, 3-Amino-6-[4-(2,2-difluoroethyl)piperazin-1-yl]-4-(7-fluoro-1H-indazol-4-yl)-1H-1,10-phenanthrolin-2-one] | 33 nM |
| Nc1c(-c2ccc(F)c3[nH]ncc23)c2cc(N3CCN(CC(F)(F)F)CC3)c3cccnc3c2[nH]c1=O [Compound D15, 3-Amino-4-(7-fluoro-1H-indazol-4-yl)-6-[4-(2,2,2-trifluoroethyl)piperazin-1-yl]-1H-1,10-phenanthrolin-2-one] | 69 nM |
| CS(=O)(=O)Nc1cc2c(-c3ccc(F)c4[nH]ncc34)c(N)c(=O)[nH]c2c2ncccc12 [Compound D16, N-[8-Amino-7-(7-fluoro-1H-indazol-4-yl)-9-oxo-10H-1,10-phenanthroline-5-yl]methanesulfonamide] | 2.7 nM |
| Nc1c(-c2ccc(F)c3[nH]ncc23)c2cc(NS(=O)(=O)C3CC3)c3cccnc3c2[nH]c1=O [Compound D17, N-[8-amino-7-(7-fluoro-1H-indazol-4-yl)-9-oxo-10H-1,10-phenanthrolin-5-yl]cyclopropanesulfonamide] | 3.1 nM |

Now from value to compound:

| IC50 | Structure (SMILES) |
| --- | --- |
| 0.25 nM | COc1cc2c(-c3ccc(F)c4[nH]ncc34)c(N)c(=O)[nH]c2c2ncccc12 [Compound D18, 3-Amino-4-(7-fluoro-1H-indazol-4-yl)-6-methoxy-1H-1,10-phenanthrolin-2-one] |
| 22 nM | CC(=O)Nc1cc2c(-c3ccc(F)c4[nH]ncc34)c(N)c(=O)[nH]c2c2ncccc12 [Compound D19, N-[8-amino-7-(7-fluoro-1H-indazol-4-yl)-9-oxo-10H-1,10-phenanthrolin-5-yl]acetamide] |
| 7 nM | CC(C)Nc1cc2c(-c3ccc(F)c4[nH]ncc34)c(N)c(=O)[nH]c2c2ncccc12 [Compound D20, 3-Amino-4-(7-fluoro-1H-indazol-4-yl)-6-(propan-2-ylamino)-1H-1,10-phenanthrolin-2-one] |
| 3.8 nM | Nc1c(-c2ccc(F)c3[nH]ncc23)c2cc(C3CCNCC3)c3cccnc3c2[nH]c1=O [Compound D21, 3-Amino-4-(7-fluoro-1H-indazol-4-yl)-6-piperidin-4-yl-1H-1,10-phenanthrolin-2-one] |
| 2.9 nM | CN1CCC(c2cc3c(-c4ccc(F)c5[nH]ncc45)c(N)c(=O)[nH]c3c3ncccc23)CC1 [Compound D22, 3-Amino-4-(7-fluoro-1H-indazol-4-yl)-6-(1-methylpiperidin-4-yl)-1H-1,10-phenanthrolin-2-one] |
| 6.4 nM | CC(C)N1CCC(c2cc3c(-c4ccc(F)c5[nH]ncc45)c(N)c(=O)[nH]c3c3ncccc23)CC1 [Compound D23, 3-Amino-4-(7-fluoro-1H-indazol-4-yl)-6-(1-propan-2-ylpiperidin-4-yl)-1H-1,10-phenanthrolin-2-one] |
| 6.9 nM | Nc1c(-c2ccc(F)c3[nH]ncc23)c2cc(C3CCN(C4CCC4)CC3)c3cccnc3c2[nH]c1=O [Compound D24, 3-Amino-6-(1-cyclobutylpiperidin-4-yl)-4-(7-fluoro-1H-indazol-4-yl)-1H-1,10-phenanthrolin-2-one] |
| 7.8 nM | Nc1c(-c2ccc(F)c3[nH]ncc23)c2cc(C3CCN(C4CCOCC4)CC3)c3cccnc3c2[nH]c1=O [Compound D25, 3-Amino-4-(7-fluoro-1H-indazol-4-yl)-6-[1-(oxan-4-yl)piperidin-4-yl]-1H-1,10-phenanthrolin-2-one] |
| 3.3 nM | CCN1CCC(c2cc3c(-c4ccc(F)c5[nH]ncc45)c(N)c(=O)[nH]c3c3ncccc23)CC1 [Compound D26, 3-Amino-6-(1-ethylpiperidin-4-yl)-4-(7-fluoro-1H-indazol-4-yl)-1H-1,10-phenanthrolin-2-one] |
| 0.53 nM | Nc1c(-c2ccc(F)c3[nH]ncc23)c2cc(C3CCN(C4COC4)CC3)c3cccnc3c2[nH]c1=O [Compound D27, 3-Amino-4-(7-fluoro-1H-indazol-4-yl)-6-[1-(oxetan-3-yl)piperidin-4-yl]-1H-1,10-phenanthrolin-2-one] |
| 1.7 nM | Nc1c(-c2ccc(F)c3[nH]ncc23)c2cc(C3CNC3)c3cccnc3c2[nH]c1=O [Compound D28, 3-Amino-6-(azetidin-3-yl)-4-(7-fluoro-1H-indazol-4-yl)-1H-1,10-phenanthrolin-2-one] |
| 5.7 nM | CC(C)N1CC(c2cc3c(-c4ccc(F)c5[nH]ncc45)c(N)c(=O)[nH]c3c3ncccc23)C1 [Compound D29, 3-Amino-4-(7-fluoro-1H-indazol-4-yl)-6-(1-propan-2-ylazetidin-3-yl)-1H-1,10-phenanthrolin-2-one] |
| 2.9 nM | CN1CC(c2cc3c(-c4ccc(F)c5[nH]ncc45)c(N)c(=O)[nH]c3c3ncccc23)C1 [Compound D30, 3-Amino-4-(7-fluoro-1H-indazol-4-yl)-6-(1-methylazetidin-3-yl)-1H-1,10-phenanthrolin-2-one] |
| 1100 nM | Nc1c(-c2cccc3[nH]ncc23)c2ccccc2oc1=O [Compound E1, 3-Amino-4-(1H-indazol-4-yl) chromen-2-one] |
| 840 nM | O=c1[nH]c2ccccc2c(-c2cccc3[nH]ncc23)c1O [Compound E2, 3-Hydroxy-4-(1H-indazol-4-yl)-1H-quinolin-2-one] |
| 12 nM | Nc1c(-c2ccc(F)c3[nH]ncc23)c2cc(Br)c3ncc(F)cc3c2[nH]c1=O [Compound F1, 3-Amino-6-bromo-9-fluoro-4-(7-fluoro-1H-indazol-4-yl)-1H-1,7-phenanthrolin-2-one] |
| 4 nM | Cc1cc2c(-c3ccc(F)c4[nH]ncc34)c(N)c(=O)[nH]c2c2cc(F)cnc12 [Compound F3, 3-Amino-9-fluoro-4-(7-fluoro-1H-indazol-4-yl)-6-methyl-1H-1,7-phenanthrolin-2-one] |
| 22 nM | Nc1c(-c2cc(F)c(F)c3[nH]ncc23)c2cc(Br)c3ncc(F)cc3c2[nH]c1=O [Compound F4, 3-Amino-6-bromo-4-(6,7-difluoro-1H-indazol-4-yl)-9-fluoro-1H-1,7-phenanthrolin-2-one] |
| 3.3 nM | COc1cc2c(-c3cc(F)c(F)c4[nH]ncc34)c(N)c(=O)[nH]c2c2cc(F)cnc12 [Compound F5, 3-Amino-4-(6,7-difluoro-1H-indazol-4-yl)-9-fluoro-6-methoxy-1H-1,7-phenanthrolin-2-one] |
